Reference: US8691864B2, “Agents useful for reducing amyloid precursor protein and treating dementia and methods of use thereof” (priority 2000, dated 2014)

Legend:
βAPP = βAPP levels in brain cortex and CSF of transgenic mice; assay type: in vivo; settings: 2.5 mg/kg i.p., once daily for 3 weeks
Aβ1-42 = Aβ1-42 levels in cerebral cortex of transgenic mice, ELISA; assay type: in vivo; settings: formic acid extraction, 3 weeks daily
Procedure: Greater reductions could be achieved, but, as previously reported, doses of >5 mg/kg produce cholinergic side effects for the (−)-enantiomer but not for the (+)-enantiomer.
Samples of cerebral cortex from the transgenic mice then were analyzed for β amyloid peptide (Aβ) levels. Specifically, Aβ1-40 and Aβ1-42 levels, following formic acid extraction, were determined by ELISA assay (Suzuki et al., 1994).

APP = test: rate of APP synthesis in SH-SY5Y cells (35S labelling, immunoprecipitation); assay type: cell-based, human; settings: 10 μM, 16 hours
Procedure: 8×10^6 SHSY-5Y cells were plated on 100 mm dishes with DMEM containing 10% FBS. After 36 hours, the culture medium was replaced with DMEM containing 0.5% FBS. The cells were incubated with low serum medium for 1 hour. Thereafter, the medium was replaced with fresh low serum medium with and without 10 μM of phenserine for 16 hours.
After treatment with methionine and cystine free medium, 2 ml of ^35S-labeled DMEM ([…]) with and without phenserine (10 μM) were added and incubated for 10 minutes. Thereafter, the labeled medium was carefully removed and the cells were suspended in lysis buffer containing with protease inhibitors and frozen at −80° C. for use in the immunoprecipitation assay.
APP protein was immunoprecipitated from 300 μig of total protein in each sample using the polyclonal antibody O443, which recognizes a 20 amino acid sequence in the carboxy terminal of APP, and protein A/G resin overnight at 4° C. Immunoprecipitated APP was eluted from the protein AJG resin with 30 μl of elution buffer (10% beta-mercaptoethanol). The samples were loaded onto 10% trys-glycine 10 gels, and the proteins were separated at 150 V for 90 min. The gels were fixed and dried at 80° C. for 60 min. The dried gels were exposed to Phosphor Screen (PACKARD Instrument Company, Inc., Meriden, Conn.) overnight and the βAPP signals were quantitated on a phosphor imager. […]

## CN1CC[C@@]2(C)c3cc(OC(=O)Nc4ccccc4)ccc3N(C)[C@@H]12 [(−)-phenserine]
βAPP
  reduction of βAPP levels in CSF: 55%
Aβ1-42
  reduction of Aβ1-42 levels: 53%
APP
  reduction of βAPP synthesis: 52%
